Measured values from patent US20240132519A1, “NRF2-ACTIVATING COMPOUND” (SENJU PHARMACEUTICAL CO., LTD., priority 2020, published 2024).
Marks after values point to notes of the source that are not given here.

Assays:
[1] = biological target: binding between NRF2 and KEAP1 (Homo sapiens (Human), UniProt Q14145); test: Binding assay: inhibition of binding between NRF2 and KEAP1 by BRET (NanoLuc-NRF2 and KEAP1-HaloTag cell lysates); details: N=2
Procedure: The inhibitory activity of each compound on the binding between NRF2 and KEAP1 was measured by bioluminescence resonance energy transfer (BRET) assay. A plasmid having human NRF2 (Original Clone ID: ha01449s1) sequence fused with NanoLuc (19 kDa, Promega) at the N-terminal was transduced into HCE-T cells (immortalized human corneal epithelial cells) using FuGENE HD (Promega). 48 hours after transduction, the cell lysate was collected and used as an NRF2-expressing cell lysate. A plasmid having human KEAP1 (Original Clone ID: cs00328) sequence fused with HaloTag (33 kDa, Promega) at the C-terminal was transduced into HCE-T cells using FuGENE HD (Promega). After 24 hours, HaloTag Nano BRET 618 Ligand (Promega) was added to the medium. The cell lysate cultured for 24 hours after the addition was used as a KEAP1-expressing cell lysate.
The NRF2-expressing cell lysate and the KEAP1-expressing cell lysate were adjusted so that the luminescence and fluorescence intensities per well were constant. Tables 1 and 2 show the formulation of each reaction solution.
Each test substance at a concentration 100 times higher than the test concentration was dissolved in dimethylsulfoxide for adjustment. 49 μL of KEAP1 solution was added to a 96-well polystyrene microplate (FALCON) to which 1 μL of each test substance solution was added, followed by incubation for 15 minutes. Then, 50 μL of NRF2 solution was added to the above solution, followed by incubation for 1 hour. To measure the binding between NRF2 and KEAP1, NanoBRET Nano-Glo Substrate (Promega) diluted with Opti-Mem (Thermo Fisher Scientific) was added, followed by shaking for 30 seconds. Then, luminescence and fluorescence were measured using the GloMax Discover System (Promega). A 495-nm short pass filter and a 600-nm long pass filter were respectively used to measure donor and acceptor emission values. A value obtained by dividing the acceptor emission value by the donor emission value was regarded as BRET value. A BRET value when the compound was not added, and a BRET value when the KEAP1 solution was not added were respectively used as binding rates of 100% and 0%, and the binding rate when the compound was added was calculated. Further, using this binding rate, the 50% binding inhibitory activity concentration (IC50) was calculated from the following formula. The test was performed at N=2.
IC50(M)=10^(LOG(A/B)×(50−C)/(D−C)+LOG(B)) • A: higher concentration out of 2 close concentrations across the inhibition rate of 50% • B: lower concentration out of 2 close concentrations across the inhibition rate of 50% • C: inhibition rate at B • D: inhibition rate at A
(§1) Compounds A1/A2, compounds B1/B2, compounds C1/C2, and compounds D1/D2 were used as test substances. Binding assay and reporter assay were performed as in Test Example 1-1 and Test Example 1-2.

HCE-T cells = test: Cell viability test in HCE-T cells (Cell Counting Kit-8, 24 hours); assay type: cell-based, human; details: mean, N=3
Procedure: To confirm cell viability, HCE-T cells were seeded at 10000 cells per well in a 96-well polystyrene microplate (IWAKI). The cells were cultured in a CO2 incubator at 37° C. for 16 hours to allow the cells to adhere. The culture of the HCE-T cells was performed using DMEM/F12 medium containing 10 ng/mL hEGF, 5 μg/mL insulin, 5% FBS, and 40 μg/mL gentamicin.
Each test substance was dissolved in dimethyl sulfoxide to prepare a stock solution with a concentration that is 1000 times the test concentration. DMEM/F12 medium containing 40 μg/mL gentamicin was used as assay medium. The medium containing serum and growth factors was removed and replaced with assay medium in which each test substance was appropriately serially diluted, and the cell viability was measured after 24 hours. Cell Counting Kit-8 (Dojindo Laboratories) was added to each well in an amount that is 1/10 the amount of the medium. Color reaction was performed for 1 hour in a CO2 incubator, and absorbance at 450 nm was measured with a microplate reader (Corona Electric Co., Ltd.). […] The test was performed at N=3.

NRF2 = test: Reporter assay: NRF2 activating action in HCE-T/ARE-Luc cells (ARE luciferase reporter gene assay); assay type: cell-based, human; details: N=3
Procedure: The NRF2 activating action of the compounds on cells was measured by a reporter gene assay. pGL4.37[luc2P/ARE/Hygro] (Promega) was introduced into HCE-T cells using FuGENE HD. Cells that acquired drug resistance as a result of transduction were screened by culture in the presence of 50 μg/mL hygromycin, and a clone strain, HCE-T/ARE-Luc cells, was established.
HCE-T/ARE-Luc cells were cultured using DMEM/F12 medium containing 10 ng/mL hEGF, 5 μg/mL insulin, 5% FBS, and 40 μg/mL gentamicin. As the assay medium, a medium with the same composition as that for the culture was prepared using phenol red-free DMEM/F12 medium.
HCE-T/ARE-Luc cells were seeded in a 96-well polystyrene microplate (FALCON) with 10000 cells per well. The cells were incubated in a CO2 incubator at 37° C. for 16 hours to allow for cell adhesion. The test substance was dissolved in dimethylsulfoxide to prepare a solution at a concentration 1000 times higher than the test concentration. The cells were treated with the test substance diluted 1000-fold with the assay medium and cultured for 24 hours. When measuring the activity of the reporter, the medium containing the test substance was removed, and then a new medium and a substrate of ONE-GloEX Luciferase Assay System (Promega) were added. The plate was shaken for 1 minute and then allowed to stand at ordinary temperature for 10 minutes, and luminescence was detected using the GloMax Discover System (Promega).
The test was performed at N=3, and the 50% activation concentration of each test substance was calculated by creating a calibration curve between two concentrations across the luminescence incensity of 50%.
as §1

[2] = Test Example 3, separated diastereomers, mean
[3] = Test Example 1-1, NRF2-KEAP1 BRET

Chain of binding between NRF2 and KEAP1 (Q14145 whole entry, the tested form may be a part): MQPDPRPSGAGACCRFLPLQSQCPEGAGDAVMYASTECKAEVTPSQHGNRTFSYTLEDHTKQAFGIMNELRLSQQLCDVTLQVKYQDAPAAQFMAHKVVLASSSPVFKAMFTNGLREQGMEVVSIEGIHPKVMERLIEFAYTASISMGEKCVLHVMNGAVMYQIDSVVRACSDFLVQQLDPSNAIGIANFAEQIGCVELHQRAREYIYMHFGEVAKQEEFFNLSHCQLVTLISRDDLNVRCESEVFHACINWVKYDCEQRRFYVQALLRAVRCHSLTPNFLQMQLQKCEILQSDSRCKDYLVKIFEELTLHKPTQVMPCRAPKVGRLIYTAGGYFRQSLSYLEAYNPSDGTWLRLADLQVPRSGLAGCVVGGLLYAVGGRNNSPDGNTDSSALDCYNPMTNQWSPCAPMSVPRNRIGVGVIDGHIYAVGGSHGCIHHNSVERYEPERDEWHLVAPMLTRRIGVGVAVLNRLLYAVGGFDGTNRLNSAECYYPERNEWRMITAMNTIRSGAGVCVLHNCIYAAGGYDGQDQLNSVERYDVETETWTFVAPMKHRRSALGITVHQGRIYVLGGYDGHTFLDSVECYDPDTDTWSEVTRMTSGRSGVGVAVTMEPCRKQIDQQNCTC

| Molecule | IC50 [1, 2] [nM] | Cytotoxic concentration (concentration that does not affect cell viability) (HCE-T cells) | EC50 (NRF2; [2]) [nM] | IC50 [1, 3] [nM] | EC50 (NRF2; Homo sapiens, Test Example 1-2, HCE-T/ARE-Luc cells, 24 hours) [nM] |
| --- | --- | --- | --- | --- | --- |
| CC[C@@H]1CN(Cc2cc(C(c3ccc(C(C)=O)s3)C(C)(C)C(=O)O)ccc2C)S(=O)(=O)c2cnccc2O1 (single isomer, unassigned) [Compound D1] | 0.17 | 34.1 µM | 0.67 |  |  |
| CC[C@@H]1CN(Cc2cc([C@@H](c3cc(OC)c(C(C)=O)s3)[C@@H](C)C(=O)O)ccc2C)S(=O)(=O)c2cnccc2O1 [Compound C1, (2R,3S)-3-(5-acetyl-4-methoxythiophen-2-yl)-3-(3-{[(R)-4-ethyl-1,1-dioxide-3,4-dihydro-2H-pyrido[4,3-b][1,4,5]oxathiazepin-2-yl]methyl}-4-methylphenyl)-2-methylpropanoic acid] | 0.15 | 53.5 µM | 3.12 |  |  |
| CC[C@@H]1CN(Cc2cc(C(c3ccc(C(C)=O)s3)[C@H](C)C(=O)O)ccc2C)S(=O)(=O)c2ccccc2O1 (some centres unmarked) [Compound A2] | 0.71 | 65.3** uM | 317 |  |  |
| CC[C@@H]1CN(Cc2cc(C(c3cc(OC)c(C(C)=O)s3)[C@H](C)C(=O)O)ccc2C)S(=O)(=O)c2cnccc2O1 (some centres unmarked) [Compound C2] | 0.89 | 30.7* uM | 777 |  |  |
| CC[C@@H]1CN(Cc2cc([C@@H](c3ccc(C(C)=O)s3)[C@@H](C)C(=O)O)ccc2C)S(=O)(=O)c2ccccc2O1 [Compound A1, (2R,3S)-3-(5-acetylthiophen-2-yl)-3-(3-{[(R)-4-ethyl-1,1-dioxide-3,4-dihydro-2H-benzo[b][1,4,5]oxathiazepin-2-yl]methyl}-4-methylphenyl)-2-methylpropanoic acid] | 0.14 | 111.4 µM | 5.82 |  |  |
| CC[C@@H]1CN(Cc2cc(C(CC(=O)O)c3csc(C(=O)NC)c3)ccc2C)S(=O)(=O)c2ccccc2O1 (stereo partly drawn) [Compound 22, 3-(3-{[(R)-4-ethyl-1,1-dioxide-3,4-dihydro-2H-benzo[b][1,4,5]oxathiazepin-2-yl]methyl}-4-methylphenyl)-3-[5-(methylcarbamoyl)thiophen-3-yl]propanoic acid] |  |  |  | 6.1 |  |
| CC(=O)c1ccc(C(c2ccc(C)c(CN3C[C@@H](C)Oc4ccccc4S3(=O)=O)c2)C(C)(C)C(=O)O)s1 (stereo partly drawn) [Compound 12, 3-(5-acetylthiophen-2-yl)-2,2-dimethyl-3-(4-methyl-3-{[(R)-4-methyl-1,1-dioxide-3,4-dihydro-2H-benzo[b][1,4,5]oxathiazepin-2-yl]methyl}phenyl)propanoic acid] |  |  |  | 0.28 |  |
| CC[C@@H]1CN(Cc2cc(C(CC(=O)O)c3cccs3)ccc2C)S(=O)(=O)c2ccccc2O1 (stereo partly drawn) [Compound 17, 3-(3-{[(R)-4-ethyl-1,1-dioxide-3,4-dihydro-2H-benzo[b][1,4,5]oxathiazepin-2-yl]methyl}-4-methylphenyl)-3-(thiophen-2-yl)propanoic acid] |  |  |  | 28 |  |
| CC[C@@H]1CN(Cc2cc(C(c3ccc(C(C)=O)s3)C(C)(C)C(=O)O)ccc2C)S(=O)(=O)c2cnccc2O1 (single isomer, unassigned) [Compound D2] | 5.17 | 14.7* uM | 513 |  |  |
| CC[C@@H]1CN(Cc2cc(C(CC(=O)O)c3ccc(C#N)s3)ccc2C)S(=O)(=O)c2ccccc2O1 (stereo partly drawn) [Compound 19, 3-(5-cyanothiophen-2-yl)-3-(3-{[(R)-4-ethyl-1,1-dioxide-3,4-dihydro-2H-benzo[b][1,4,5]oxathiazepin-2-yl]methyl}-4-methylphenyl)propanoic acid] |  |  |  | 3.1 |  |
| CC[C@@H]1CN(Cc2cc(C(c3cc(F)c(C(C)=O)s3)C(C)(C)C(=O)O)ccc2C)S(=O)(=O)c2ccccc2O1 (stereo partly drawn) [Compound 11, 3-(5-acetyl-4-fluorothiophen-2-yl)-3-(3-{[(R)-4-ethyl-1,1-dioxide-3,4-dihydro-2H-benzo[b][1,4,5]oxathiazepin-2-yl]methyl}-4-methylphenyl)-2,2-dimethylpropanoic acid] |  |  |  | 0.23 |  |
| CC[C@@H]1CN(Cc2cc(C(CC(=O)O)c3cc(C)c(C(C)=O)s3)ccc2C)S(=O)(=O)c2ccccc2O1 (stereo partly drawn) [Compound 7, 3-(5-acetyl-4-methylthiophen-2-yl)-3-(3-{[(R)-4-ethyl-1,1-dioxide-3,4-dihydro-2H-benzo[b][1,4,5]oxathiazepin-2-yl]methyl}-4-methylphenyl)propanoic acid] |  |  |  | 0.36 |  |
| 3-(3-{[(R)-4-ethyl-1,1-dioxide-3,4-dihydro-2H-benzo[b][1,4,5]oxathiazepin-2-yl]methyl}-4-methylphenyl)-3-(5-sulfamoylthiophen-2-yl)propanoic acid [Compound 18] |  |  |  | 35 |  |
| CC[C@@H]1CN(Cc2cc(C(c3ccc(C(C)=O)s3)[C@H](C)C(=O)O)ccc2C)S(=O)(=O)c2cnccc2O1 (some centres unmarked) [Compound B2] | 1.01 | 181.1* uM | 90.1 |  |  |
| CC[C@@H]1CN(Cc2cc(C(c3ccc(C(C)=O)s3)C(C)(C)C(=O)O)ccc2C)S(=O)(=O)c2ccccc2O1 (stereo partly drawn) [Compound 6, 3-(5-acetylthiophen-2-yl)-3-(3-{[(R)-4-ethyl-1,1-dioxide-3,4-dihydro-2H-benzo[b][1,4,5]oxathiazepin-2-yl]methyl}-4-methylphenyl)-2,2-dimethylpropanoic acid] |  |  |  | 0.27 |  |
| CC[C@@H]1CN(Cc2cc(C(CC(=O)O)c3ccc(C(N)=O)s3)ccc2C)S(=O)(=O)c2ccccc2O1 (stereo partly drawn) [Compound 23, 3-(5-carbamoylthiophen-2-yl)-3-(3-{[(R)-4-ethyl-1,1-dioxide-3,4-dihydro-2H-benzo[b][1,4,5]oxathiazepin-2-yl]methyl}-4-methylphenyl)propanoic acid] |  |  |  | 0.39 |  |
| CC[C@@H]1CN(Cc2cc(C(c3cc(C)c(C(C)=O)s3)C(C)C(=O)O)ccc2C)S(=O)(=O)c2ccccc2O1 (stereo partly drawn) [Compound 2, 3-(5-acetyl-4-methylthiophen-2-yl)-3-(3-{[(R)-4-ethyl-1,1-dioxide-3,4-dihydro-2H-benzo[b][1,4,5]oxathiazepin-2-yl]methyl}-4-methylphenyl)-2-methylpropanoic acid] |  |  |  | 0.25 | 9 |
